Test results from patent EP3964206A1, “COMPOUNDS FOR THE TREATMENT OF COVID-19” (priority 2020, dated 2022).
Counter-ions that a name gives are not always drawn.

System: SARS-CoV-2
Test: microbe, parasite or virus in culture
Type: cell-based
Details: Severe acute respiratory syndrome coronavirus 2, 120 h; for Emax: read-out: Maximum confluence reached (%)

CCCCOCCOc1ccc(-c2ccc3c(c2)C=C(C(=O)Nc2ccc([S@@+]([O-])Cc4cncn4CCC)cc2)CCCN3CC(C)C)cc1 [Compound 65, (-)-(S)-8-[4-(2-Butoxyethoxy)phenyl]-1-isobutyl-N-[4-(1-propyl-1H-imidazol-5-ylmethylsulfinyl)phenyl]-1,2,3,4-tetrahydro-1-benzazocine-5-carboxamide] gave an IC50 of 55 µM and an Emax of 70.9%.
CCCCN(CCCC)CCC(O)c1cc2c(Cl)cc(Cl)cc2c2cc(C(F)(F)F)ccc12 (racemic) [Compound 40, (±)-1,3-Dichloro-9-[3-(dibutylamino)-1-hydroxypropyl]-6-(trifluoromethyl)phenanthrene hydrochloride] was tested, and the Emax was 51.8%.
For Nc1nc(=S)c2ncn([C@@H]3O[C@H](CO)[C@@H](O)[C@H]3O)c2[nH]1 [Compound 55, 2-amino-9-[(2R,3R,4S,5R)-3,4-dihydroxy-5-(hydroxymethyl)oxolan-2-yl]-3H-purine-6-thione], the Emax was 51.5%.
In the case of Cc1c(O)cccc1C(=O)N[C@@H](CSc1ccccc1)[C@H](O)CN1C[C@H]2CCCC[C@H]2C[C@H]1C(=O)NC(C)(C)C [Compound 31, (3S,4aS,8aS)-N-tert-Butyl-2-[2(R)-hydroxy-3(R)-(3-hydroxy-2-methylbenzamido)-4-(phenylsulfanyl)butyl]perhydroisoquinoline-3-carboxamide methanesulfonate], the Emax is reported as 59.5%.
COc1ccc2cc1Oc1ccc(cc1)C[C@H]1c3cc(c(OC)cc3CCN1C)Oc1c(OC)c(OC)cc3c1[C@H](C2)N(C)CC3 [Compound 79, (1beta)-(S,S)-6,6',7,12-Tetramethoxy-2,2'-dimethylberbaman] showed an Emax of 99.6%.
In the case of Cc1ccc(NC(=O)Nc2cc(C(F)(F)F)ccc2F)cc1Nc1ccc2c(c1)NC(=O)C2=Cc1ccc[nH]1 [Compound 92, 1-[2-Fluoro-5-(trifluoromethyl)phenyl]-3-[4-methyl-3-[2-oxo-3-(1H-pyrrol-2-ylmethylene)-2,3-dihydro-1H-indol-6-ylamino]phenyl]urea], the IC50 is reported as 5.23 µM and the Emax is reported as 75.5%.
CC1(N2CCC(n3c([C@@H]4CCCNC4)nc4ccccc43)CC2)CCCCCCC1 [Compound 51, 1-[1-(1-Methylcyclooctyl)piperidin-4-yl]-2-[3(R)-piperidinyl]-1H-benzimidazole] showed an Emax of 57.8%.
Work on CC(C)(C)C(=O)C(=Cc1cccc([N+](=O)[O-])c1)n1cncn1 [Compound 76, 4,4-dimethyl-1-(3-nitrophenyl)-2-(1H-1,2,4-triazol-1-yl)-1-penten-3-one] yielded an IC50 of 4.33 µM and an Emax of 50.4%.
With CCN(CC)Cc1cc(Nc2ccnc3cc(Cl)ccc23)ccc1O [Compound 106, 4-(7-Chloroquinolin-4-ylamino)-2-(diethylaminomethyl)phenol hydrochloride] the IC50 was 21.5 µM and the Emax was 37.5%.
Cn1c(Nc2ccc(C(F)(F)F)cc2)nc2cc(Oc3ccnc(-c4nc(C(F)(F)F)c[nH]4)c3)ccc21 [Compound 70, 1-Methyl-N-[4-(trifluoromethyl)phenyl]-5-[2-[4-(trifluoromethyl)-1H-imidazol-2-yl]pyridin-4-yloxy]-1H-benzimidazol-2-amine] showed an Emax of 44.1%.
CCC(C/C=C/c1ccccc1)(c1ccccc1)N(C)CC1CC1 (single isomer, unassigned; (+)) [Compound 89, (+)-N-(Cyclopropylmethyl)-N-[1-ethyl-1,4-diphenyl-3(E)-butenyl]-N-methylamine] gave an IC50 of 11.2 µM and an Emax of 58.3%.
In the case of CC(C)(C)c1cc(C=C(C#N)C#N)cc(Br)c1O [Compound 99, 2-(3-Bromo-5-tert-butyl-4-hydroxybenzylidene)propanedinitrile], the IC50 is reported as 7.23 µM and the Emax is reported as 37.3%.
In the case of O=S(=O)(NCC1CC1)c1ccc(Nc2nccc(N3CCCc4cc(O)ccc43)n2)cc1 [Compound 86, N-(Cyclopropylmethyl)-4-[[4-(3,4-dihydro-6-hydroxy-1(2H)-quinolinyl)-2-pyrimidinyl]amino]benzenesulfonamide], the Emax is reported as 55%.
In the case of CN(C)c1cccc(-c2c3c(=O)n(-c4ccccc4Cl)[nH]c3cc(=O)n2C)c1 [Compound 13, 2-(2-Chlorophenyl)-4-[3-(dimethylamino)phenyl]-5-methyl-1H-pyrazolo[4,3-c]pyridine-3,6(2H,5H)-dione], the IC50 is reported as 7.57 µM and the Emax is reported as 102%.
CC[C@@H](C(=O)[C@@H](C)[C@@H](O)[C@H](C)[C@@H]1O[C@@H]([C@@H](CC)C(=O)O)CC[C@@H]1C)[C@H]1O[C@]2(C=C[C@@H](O)[C@]3(CC[C@@](C)([C@H]4CC[C@](O)(CC)[C@H](C)O4)O3)O2)[C@H](C)C[C@@H]1C [Compound 93, 2(R)-[6(R)-[5(R)-[(2S,5S,7R,9S,10S,12R,15R)-2-[5(R)-Ethyl-5-hydroxy-6(S)-methyltetrahydropyran-2(R)-yl]-15-hydroxy-2,10,12-trimethyl-1,6,8-trioxadispiro[4.1.5.3]pentadec-13-en-9-yl]-2(S)-hydroxy-1(S),3(S)-dimethyl-4-oxoheptyl]-5(S)-methyltetrahydropyran-2(R)-yl]butyric acid] was tested, and the Emax was 34.4%.
With CN(Cc1cnc2nc(N)nc(N)c2n1)c1ccc(C(=O)N[C@@H](CCC(=O)O)C(=O)O)cc1 [Compound 1, N-[4-[N-(2,4-Diaminopteridin-6-ylmethyl)-N-methylamino]benzoyl]-L-glutamic acid] the IC50 was 0.05 µM and the Emax was 64%.
Compound CC(C)(C)c1cc(C=C(C#N)C#N)cc(C(C)(C)C)c1O [Compound 66, (3,5-Di-tert-butyl-4-hydroxybenzylidene)malononitrile] has an Emax of 47.6%.
For CCN(CC)CCO[C@H]1CC[C@@]2(C)C(=CC[C@@H]3[C@@H]2CC[C@]2(C)C(=O)CC[C@@H]32)C1 [Compound 80, 3beta-[2-(Diethylamino)ethoxy]androst-5-en-17-one hydrochloride], the Emax was 44.7%.
In the case of COc1cc2c(NC3CCN(C4CCCCC4)CC3)nc(N3CCCN(C(C)C)CC3)nc2cc1OCCCN1CCCCC1 [Compound 59, N-(1-Cyclohexylpiperidin-4-yl)-6-methoxy-7-[3-(1-piperidinyl)propoxy]-2-[4-(propan-2-yl)perhydro-1,4-diazepin-1-yl]quinazolin-4-amine], the Emax is reported as 80.1%.
In the case of O=C(NCCN1CCC2(CC1)C(=O)NCN2c1cccc(F)c1)c1ccc2ccccc2c1 [Compound 56, N-[2-[1-(3-Fluorophenyl)-4-oxo-1,3,8-triazaspiro[4.5]dec-8-yl]ethyl]naphthalen-2-carboxamide], the Emax is reported as 98.5%.
Compound Cc1cccc(Nc2nc(-c3ccncc3)cs2)c1 [Compound 85, N-(3-Methylphenyl)-4-(4-pyridyl)thiazol-2-amine] has an Emax of 47.8%.
With O=C(Nc1ccc(Cl)cc1)Nc1ccc(Cl)c(Cl)c1 [Compound 100, 3-(4-Chlorofenil)-1-(3,4-diclorofenil)urea] the Emax was 47.2%.
Work on Cn1cc(-c2ccncc2)c(-c2ccc(OCc3ccc4ccccc4n3)cc2)n1 [Compound 83, 2-[4-[1-Methyl-4-(4-pyridyl)-1H-pyrazol-3-yl]phenoxymethyl]quinoline succinate] yielded an Emax of 36.7%.
For CC(C)(O)CNc1ncc(-c2ccnc(Nc3ccnc(Cl)c3)n2)c(CC2CC2)n1 [Compound 60, 1-[[2-[(2-chloro-4-pyridinyl)amino]-4'-(cyclopropylmethyl)[4,5'-bipyrimidin]-2'-yl]amino]-2-methyl-2-propanol], the Emax was 45.6%.
Work on CN(C)CCC=C1c2ccccc2C=Cc2ccccc21 [Compound 90, 3-(5H-Dibenzo[a,d]cyclohepten-5-ylidene)-N,N-dimethylpropan-1-amine hydrochloride] yielded an IC50 of 12.1 µM and an Emax of 70.2%.
In the case of C[C@@H]1C[C@@H]([C@H](O)CC2CC(=O)NC(=O)C2)C(=O)[C@@H](C)C1 [Compound 58, 4-[2(R)-[(1S,3S,5S)-3,5-Dimethyl-2-oxocyclohexyl]-2-hydroxyethyl]piperidine-2,6-dione], the Emax is reported as 63.7%.
CN(C)C(=O)C(CCN1CCC(O)(c2ccc(Cl)cc2)CC1)(c1ccccc1)c1ccccc1 [Compound 110, 4-[4-(4-Chlorophenyl)-4-hydroxypiperidin-1-yl]-N,N-dimethyl-2,2-diphenylbutyramide hydrochloride] gave an Emax of 34.4%.
CCN(CC)CCOc1ccc2c(c1)C(=O)c1cc(OCCN(CC)CC)ccc1-2 [Compound 84, 2,7-Bis[2-(diethylamino)ethoxy]-9H-fluoren-9-one] was tested, and the Emax was 68.9%.
With N#Cc1cccc(C#N)c1-c1nc2c3ccc(Cl)cc3c3ccccc3c2[nH]1 [Compound 64, 2-(6-Chloro-1H-phenanthro[9,10-d]imidazol-2-yl)benzene-1,3-dicarbonitrile] the Emax was 98.5%.
Cn1nc(C(C)(C)C)cc1C(=O)N[C@@H](Cc1cccc(Cl)c1)C(=O)NCC#N [Compound 63, 3-tert-butyl-N-{(1S)-1-(3-chlorobenzyl)-2-[(cyanomethyl)amino]-2-oxoethyl}-1-methyl-1H-pyrazole-5-carboxamide] gave an Emax of 96.2%.
Nc1ncnc2c1ncn2[C@@H]1CC[C@@H](O)[C@H]1O [Compound 74, (1R,2S,3R)-9-(2,3-Dihydroxycyclopentyl)adenine] showed an Emax of 38%.
In the case of CCN(CC)CCCCNc1ncc2cc(-c3c(Cl)cccc3Cl)c(NC(=O)NC(C)(C)C)nc2n1 [Compound 107, 1-tert-Butyl-3-[6-(2,6-dichlorophenyl)-2-[4-(diethylamino)butylamino]pyrido[2,3-d]pyrimidin-7-yl]urea], the IC50 is reported as 145 µM and the Emax is reported as 34.1%.
In the case of O=C(Nc1ccc(Cl)c(Cl)c1)Nc1ccc(Cl)c(Cl)c1 [Compound 72, 1,3-Bis(3,4-dichlorophenyl)urea], the Emax is reported as 45.9%.
For COc1cc2ncnc(Nc3cccc(Br)c3)c2cc1OC [Compound 68, 4-(3-Bromophenylamino)-6,7-dimethoxyquinazoline], the Emax was 54.5%.
CC(C)COCC(CN(Cc1ccccc1)c1ccccc1)N1CCCC1 (centres unmarked) [Compound 78, 1-[1-(N-Benzylanilino)-3-isobutoxy-2-propyl]pyrrolidine monohydrochloride monohydrate] was tested, and the Emax was 30.4%.
CNCc1ccc(-c2cc(-c3nc(-c4ccc(S(=O)(=O)C(C)C)cc4)cnc3N)on2)cc1 [Compound 34, 3-[3-[4-[(Methylamino)methyl]phenyl]-1,2-oxazol-5-yl]-5-[4-(propan-2-ylsulfonyl)phenyl]pyrazin-2-amine] was tested, and the Emax was 99.2%.
Cc1nc(N)nc(N)c1-c1ccc(Cl)c(Cl)c1 [Compound 41, 5-(3,4-Dichlorophenyl)-6-methylpyrimidine-2,4-diamine] showed an Emax of 58%.
